In PubChem BioAssay (NCI) one finds GI50 and TGI data, which are given here for 14 molecules.

Some test systems named below: MDA-MB-435; MCF7 breast; MDA-MB-231 breast; HS 578T breast; T-47D breast.
Common to all, as to assay: DTP human tumour cell line panel, 48 h

Values joined by “and” are separate entries in the source; they are usually repeats but may differ in a detail not shown here. Identical values can stand only once.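 Growth conditions: 96-well plates. Treatment: test compound, 48 hours, 5 concentrations. Analysis: linear interpolation between bracketing concentrations; unreached endpoints set to highest concentration. GI50 = concentration required for 50% inhibition of growth. TGI marks complete inhibition of growth.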

In the case of `O=C1Cc2cc(CCn3ccnc3)c(Cl)cc2N1`, the GI50 with MDA-MB-435 is 3.12 µM; with MCF7 breast, 4.12 µM; with MDA-MB-231 breast it was 5.18 µM; with HS 578T breast it was 0.873 µM; in the test with T-47D breast, 75.6 µM. Further, the TGI in the test on MDA-MB-435 is 15.2 µM; in the test with MCF7 breast, above 100 µM; in the test on MDA-MB-231 breast, above 100 µM; with HS 578T breast, 9.92 µM; in the test with T-47D breast it was above 100 µM.
On to `COc1cc2c(cc1OCCCCNC(=O)c1cc3ccccc3[nH]1)N=CC1CCCN1C2=O` (stereo unspecified), for which the GI50 was 20.3 µM with MDA-MB-435; 6.82 µM in the test on MCF7 breast; 14.9 µM in the test on MDA-MB-231 breast; 16.1 µM with HS 578T breast; 21.7 µM in the test with T-47D breast. Besides, the concentration for total growth inhibition (TGI) in the test on MDA-MB-435 was 74.6 µM; in the test with MCF7 breast, above 100 µM; with MDA-MB-231 breast, 66.8 µM; in the test with HS 578T breast, 71.5 µM; in the test on T-47D breast it was above 100 µM.
In the case of `N/C(=N\O)c1ncc(-c2ccc(C(F)(F)F)cc2)c(NC2CCCCCC2)n1`, the GI50 was 3.76 µM in the test on MDA-MB-435; 4.65 µM and 1.43 µM with MCF7 breast; 3.96 µM in the test with MDA-MB-231 breast; 5.67 µM in the test with HS 578T breast; 6.89 µM and 3.59 µM in the test on T-47D breast. The total growth inhibition concentration (TGI) in the test with MDA-MB-435 turned out to be 17 µM; with MCF7 breast, 12.3 µM; in the test with MDA-MB-231 breast it was 19.3 µM; in the test on HS 578T breast it was 23.2 µM; in the test on T-47D breast, 16.8 µM.
For the molecule `COc1ccc2c(c1)C(=O)c1c-2n(CCCN=[N+]=[N-])c(=O)c2ccccc12`, the GI50 was 65.2 µM in the test on MDA-MB-435; 1.5 µM in the test with MCF7 breast; above 100 µM in the test with MDA-MB-231 breast; 62.4 µM in the test with HS 578T breast; 25.9 µM with T-47D breast. The TGI with MDA-MB-435, with MCF7 breast, in the test on MDA-MB-231 breast, in the test on HS 578T breast and in the test on T-47D breast was above 100 µM throughout.
Turning to `O=C(Nc1cccc(Cl)c1)Nc1cccc(Cl)c1`, the GI50 in the test on MCF7 breast was 5.79 µM; in the test on MDA-MB-231 breast, 18.2 µM; in the test with HS 578T breast, above 100 µM; with T-47D breast it was 2.28 µM. In addition, the total growth inhibition concentration (TGI) with MCF7 breast, in the test on MDA-MB-231 breast, in the test on HS 578T breast and in the test with T-47D breast was above 100 µM in each case.
Take `O=S(=O)(NCCNc1nccc(-c2c(-c3cccc(O)c3)nc3sccn23)n1)c1ccc(F)cc1`: the GI50 in the test on MDA-MB-435 is 0.939 µM; with MCF7 breast it was 2.39 µM; in the test with MDA-MB-231 breast, 4.88 µM; in the test on HS 578T breast, 2.93 µM; in the test with T-47D breast it was 6.54 µM. For the same molecule, the TGI was determined as 11.6 µM in the test with MDA-MB-435; 14.9 µM in the test with MCF7 breast; 44.8 µM in the test on MDA-MB-231 breast; 11.7 µM in the test with HS 578T breast; 25 µM in the test on T-47D breast.
Take `O=C1NC(=NCc2cccs2)SC1Cc1ccc2ncccc2c1` (stereo unspecified): the GI50 in the test with MDA-MB-435 is 7.21 µM; in the test with MCF7 breast it was 8.79 µM; with MDA-MB-231 breast, above 25 µM; in the test on HS 578T breast it was 9.87 µM; in the test on T-47D breast, 24.9 µM. In addition, the TGI in the test with MDA-MB-435, in the test with MCF7 breast, in the test with MDA-MB-231 breast, with HS 578T breast and with T-47D breast was above 25 µM throughout.
For `O=C1NC(=NCC(CO)c2ccccc2)S/C1=C\c1ccc2ncccc2c1` (stereo unspecified), the GI50 was 11.3 µM in the test on MDA-MB-435; 12.4 µM in the test with MCF7 breast; above 25 µM in the test with MDA-MB-231 breast; 14.7 µM in the test with HS 578T breast; 25 µM in the test with T-47D breast. Also, the TGI in the test on MDA-MB-435, in the test on MCF7 breast, with MDA-MB-231 breast, with HS 578T breast and in the test on T-47D breast was above 25 µM in each case.
`C=CCN1C(=O)/C(=c2\sc3n(c2=O)C2C(NN=3)N(CC)C(=O)N2CC)c2ccccc21` (stereo unspecified): the GI50 was 0.207 µM with MDA-MB-435; 0.448 µM with MCF7 breast; 1.23 µM with MDA-MB-231 breast; 0.447 µM with HS 578T breast; 0.438 µM in the test on T-47D breast. In addition, the total growth inhibition concentration (TGI) in the test on MDA-MB-435 is 0.491 µM; in the test with MCF7 breast it was above 100 µM; in the test on MDA-MB-231 breast, 7.96 µM; in the test on HS 578T breast it was 58.5 µM; in the test with T-47D breast it was above 100 µM.
Take `CCOc1ccc(Cc2nccc3cc(OCC)c(OCC)cc23)cc1OCC`: the GI50 with MDA-MB-435 is 5.78 µM; in the test on MCF7 breast it was 9.94 µM; in the test with MDA-MB-231 breast, 4.02 µM; with HS 578T breast it was 13.2 µM; with T-47D breast, 1.47 µM. In addition, the TGI with MDA-MB-435 is 23.1 µM; with MCF7 breast, 23.8 µM; in the test with MDA-MB-231 breast, 25.9 µM; in the test with HS 578T breast it was 57.7 µM; in the test on T-47D breast, 15 µM.
For the molecule `COC1=C(OC)C(=O)C(/C=C(\C)C(=O)O)=C(C)C1=O`, the GI50 with MDA-MB-435, with MCF7 breast, with MDA-MB-231 breast, in the test with HS 578T breast and in the test with T-47D breast was above 100 µM each time. In addition, the total growth inhibition concentration (TGI) in the test on MDA-MB-435, with MCF7 breast, in the test with MDA-MB-231 breast, in the test with HS 578T breast and with T-47D breast was above 100 µM throughout.
Take `Cc1ccc(-n2c3c(c4c(CN5CCCCC5)c(O)ccc42)CCc2ccccc2C3=O)cc1`: the GI50 in the test on MDA-MB-435 is above 100 µM; in the test on MCF7 breast, above 100 µM; in the test on MDA-MB-231 breast, 30.7 µM; in the test on HS 578T breast, above 100 µM; in the test on T-47D breast, above 100 µM. Moreover, the total growth inhibition concentration (TGI) with MDA-MB-435, in the test with MCF7 breast, in the test with MDA-MB-231 breast, in the test with HS 578T breast and in the test on T-47D breast was above 100 µM throughout.
Regarding `Oc1nc(NCCc2ccccc2)sc1/C=C1\C=Nc2ncccc21`, the GI50 is 2.41 µM and 2.83 µM with MDA-MB-435; 2.79 µM and 2.95 µM in the test with MCF7 breast; 3.05 µM and 3.74 µM in the test on MDA-MB-231 breast; 2.55 µM and 3.19 µM in the test with HS 578T breast; 2.15 µM and 3.22 µM in the test with T-47D breast. Moreover, the TGI in the test with MDA-MB-435 was 8.54 µM and 12.2 µM; in the test with MCF7 breast, 11.3 µM and 11.5 µM; with MDA-MB-231 breast, 9.27 µM and 21.6 µM; with HS 578T breast, 7.44 µM and 9.51 µM; in the test on T-47D breast, 9.09 µM and 8.2 µM.
On to `c1cncc(CNc2ccccc2-c2nnc(Nc3ccc4c(c3)OCO4)o2)c1`, for which the GI50 with MCF7 breast is 0.039 µM; in the test with MDA-MB-231 breast, 0.343 µM; with HS 578T breast it was 0.0974 µM; with T-47D breast it was 0.22 µM. Moreover, the concentration for total growth inhibition (TGI) in the test with MCF7 breast, in the test on MDA-MB-231 breast, in the test with HS 578T breast and with T-47D breast was above 100 µM each time.
